Here are results for one molecule from publication PMC5028780, “Receptor and transporter binding and activity profiles of albiflorin extracted from Radix paeoniae Alba” (Scientific Reports, 2016).

Each structure is given as a SMILES string.

One assay has as its target T1, SERT (Rattus norvegicus, UniProt P31652).
T1 construct: rat brain synaptosomes were prepared and treated with various concentrations of albiflorin; from tissue; host or cells: Sprague-Dawley rat brain synaptosomes (cerebral cortex in the text)
Nature of the assay: Rat synaptosome uptake assay, [3H]-5-HT. The settings on record: Mid brain synaptosome. In kind it is biochemical. The procedure: Male Sprague–Dawley rats were killed by asphyxiation with carbon dioxide and cervical dislocation followed by decapitation. […] All dissected tissues were homogenised using a Teflon-glass tissue homogeniser in 4 mL of ice-cold sucrose (0.32 M). The homogenised tissue was centrifuged at 2,000× g for 10 min at 4 °C. […] Bio-Rad protein assay reagents (1:5 ratio) were used to analyse the protein concentration of the synaptosomal suspension. Uptake of 5-HT, NE and DA was determined as described previously. The compounds to be tested were dissolved in DMSO, further diluted with assay buffer, and tested over a 10-log unit concentration range in duplicate. Samples of 30–50 μg of synaptosomes (per sample in a total volume of 200 μL) were preincubated at 37 °C in a shaking water bath for 10 min. Vehicle or modifiers were then added for 10–20 min. Uptake was initiated by adding [^3H]-5-HT (20 nM), [^3H]-NE (20 nM), or [^3H]-DA (50 nM). After a 10-min incubation at 37 °C, uptake was terminated by filtration through (polyethyleneimine-coated) GF/B Whatman filters using a Brandel Cell Harvester (Brandel, Gaithersburg, MD).
(§1) All data for inhibition curves were analysed by nonlinear regression using Prism software (GraphPad Software Inc., San Diego, CA) to determine IC50 values. […]

A further assay addresses H4 (Homo sapiens, UniProt Q9H3N8). The assay can be described thus: CNS receptor binding, histamine H4. As to conditions: CHO cell line, [3H]-histamine(1). The procedure:
(§2) Albiflorin (10 μM) was tested for numerous other potential binding targets by using standard receptor binding procedures. The tested targets included the following receptors: D1, D2, D3, D4, D5, 5-HT1A, 5-HT1B, 5-HT1D, 5-HT2a, 5-HT2C, 5-HT3, 5-HT5A, 5-HT6, 5-HT7, α1A, α1B, α2A, β1, M1, M2, M3, M4, M5, μ, κ, δ, A1, A2A, H1, H2, H3, H4.

The target of a further assay is M2 (Homo sapiens, UniProt P08172). The assay can be described thus: CNS receptor binding, muscarinic M2. As to conditions: HEK293 cell line, [3H]-NMS(1). As to the method: as §2
Sequence of M2 (P08172 whole entry): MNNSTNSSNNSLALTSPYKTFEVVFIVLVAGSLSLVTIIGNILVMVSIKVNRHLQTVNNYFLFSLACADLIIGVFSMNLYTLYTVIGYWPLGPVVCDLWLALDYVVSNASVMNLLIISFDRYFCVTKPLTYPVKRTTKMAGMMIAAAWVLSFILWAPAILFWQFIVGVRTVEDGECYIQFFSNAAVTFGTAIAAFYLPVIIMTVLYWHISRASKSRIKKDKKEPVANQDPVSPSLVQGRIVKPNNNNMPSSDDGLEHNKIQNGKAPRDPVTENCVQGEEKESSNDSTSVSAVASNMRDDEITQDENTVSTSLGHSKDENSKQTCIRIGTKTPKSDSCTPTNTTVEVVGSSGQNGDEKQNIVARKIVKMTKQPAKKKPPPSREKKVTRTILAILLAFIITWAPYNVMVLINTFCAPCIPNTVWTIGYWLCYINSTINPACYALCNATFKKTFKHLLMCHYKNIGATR
The target of another assay is NET (Rattus norvegicus, UniProt Q63380). Format: biochemical. As to conditions: Frontal cortex synaptosome, read-out: IC50 values, uptake of [3H]-NE (NET). The procedure:
(§3) Male Sprague–Dawley rats were killed by asphyxiation with carbon dioxide and cervical dislocation followed by decapitation. The brains were removed quickly and the cerebral cortex, hypothalamus and striatum were dissected on ice. All dissected tissues were homogenised using a Teflon-glass tissue homogeniser in 4 mL of ice-cold sucrose (0.32 M). The homogenised tissue was centrifuged at 2,000× g for 10 min at 4 °C. […] Bio-Rad protein assay reagents (1:5 ratio) were used to analyse the protein concentration of the synaptosomal suspension. Uptake of 5-HT, NE and DA was determined as described previously. The compounds to be tested were dissolved in DMSO, further diluted with assay buffer, and tested over a 10-log unit concentration range in duplicate. Samples of 30–50 μg of synaptosomes (per sample in a total volume of 200 μL) were preincubated at 37 °C in a shaking water bath for 10 min. Vehicle or modifiers were then added for 10–20 min. Uptake was initiated by adding [^3H]-5-HT (20 nM), [^3H]-NE (20 nM), or [^3H]-DA (50 nM). After a 10-min incubation at 37 °C, uptake was terminated by filtration through (polyethyleneimine-coated) GF/B Whatman filters using a Brandel Cell Harvester (Brandel, Gaithersburg, MD).
as §1

Another assay concerns the target T2, DAT (Rattus norvegicus, UniProt P23977).
T2 construct: rat brain synaptosomes were prepared and treated with various concentrations of albiflorin; from tissue; host or cells: Sprague-Dawley rat striatal synaptosomes
Format: biochemical. As to conditions: Striatum synaptosome, read-out: IC50 values, uptake of [3H]-DA (DAT). The procedure:
as §3, §1

A further assay concerns the target T3, hNET (Homo sapiens, UniProt P23975).
T3 construct: expressed in transfected cells
The assay can be described thus: Human monoamine transporter binding assay, NET. The procedure:
(§4) Membranes were prepared from HEK293 cells stably expressing hSERT, hNET, or hDAT as described previously. Briefly, [^3H]-citalopram (1 nM), [^3H]-nisoxetine (2 nM), or [^3H]-WIN35,428 (2 nM) was used to label human 5-HT, NE, or DA transporters, respectively.
(§5) All data for inhibition curves were analysed by nonlinear regression using Prism software (GraphPad Software Inc., San Diego, CA) to determine IC50 values. For the microdialysis experiments, two-way repeated-measures ANOVA followed by Tukey’s test was used to compare the percentage increase over baseline between groups, time and treatment as independent factors, and time as the repeated factor.

Another assay concerns the target M3 (Homo sapiens, UniProt P20309). Nature of the assay: CNS receptor binding, muscarinic M3. The settings on record: CHO cell line, [3H]-NMS(1). As to the method:
as §2

Another assay concerns the target A2A (Homo sapiens, UniProt P29274). Nature of the assay: CNS receptor binding, adenosine A2A. The settings on record: HEK293 cell line, [3H]-CGS21680(10), read-out: IC50 values for albiflorin. The procedure: as §2
In another assay the target is M4 (Homo sapiens, UniProt P08173). The assay can be described thus: CNS receptor binding, muscarinic M4. The settings on record: CHO cell line, [3H]-NMS(1). As to the method:
as §2

The target of a further assay is 5-HT5A (Homo sapiens, UniProt P47898). The assay can be described thus: CNS receptor binding, 5-HT5A. As to conditions: HEK293 cell line, [3H]-LSD(1). The procedure:
as §2

For a further assay, the target named is α1A (Rattus norvegicus, UniProt P43140). The assay can be described thus: CNS receptor binding, NE receptor α1A. As to conditions: Rat Frontal cortex, [3H]-parzosin(1). As to the method:
as §2

The target in a further assay is T4, hDAT (Homo sapiens, UniProt Q01959).
T4 construct: expressed in transfected cells
T4 sequence (Q01959 whole entry): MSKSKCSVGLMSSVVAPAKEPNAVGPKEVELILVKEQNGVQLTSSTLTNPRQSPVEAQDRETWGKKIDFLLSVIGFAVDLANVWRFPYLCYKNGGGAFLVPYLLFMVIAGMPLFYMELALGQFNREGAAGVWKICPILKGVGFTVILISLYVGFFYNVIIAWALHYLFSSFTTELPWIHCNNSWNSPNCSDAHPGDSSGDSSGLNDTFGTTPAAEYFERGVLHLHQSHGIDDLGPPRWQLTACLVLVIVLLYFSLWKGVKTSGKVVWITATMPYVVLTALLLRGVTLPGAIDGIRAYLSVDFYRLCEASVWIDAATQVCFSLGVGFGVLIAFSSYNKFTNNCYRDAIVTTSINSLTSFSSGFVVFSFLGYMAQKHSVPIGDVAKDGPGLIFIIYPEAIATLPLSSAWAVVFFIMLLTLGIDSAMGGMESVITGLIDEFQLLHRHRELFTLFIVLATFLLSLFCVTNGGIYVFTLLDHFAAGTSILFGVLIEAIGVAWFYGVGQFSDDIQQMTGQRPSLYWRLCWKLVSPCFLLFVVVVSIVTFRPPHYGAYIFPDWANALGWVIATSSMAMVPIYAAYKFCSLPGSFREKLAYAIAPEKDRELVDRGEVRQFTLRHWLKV
As to conditions: [3H]-win35,428, HEK293 cell line, read-out: Ki values, DAT binding. As to the method:
as §4, §5

The next assay has as its target H3 (Homo sapiens, UniProt Q9Y5N1). Nature of the assay: CNS receptor binding, histamine H3. As to conditions: CHO cell line, [3H]-hestamine(1). As to the method: as §2
The mark [1] stands for this setting: read-out: IC50 values for albiflorin.

Sequence of H4 (Q9H3N8 whole entry): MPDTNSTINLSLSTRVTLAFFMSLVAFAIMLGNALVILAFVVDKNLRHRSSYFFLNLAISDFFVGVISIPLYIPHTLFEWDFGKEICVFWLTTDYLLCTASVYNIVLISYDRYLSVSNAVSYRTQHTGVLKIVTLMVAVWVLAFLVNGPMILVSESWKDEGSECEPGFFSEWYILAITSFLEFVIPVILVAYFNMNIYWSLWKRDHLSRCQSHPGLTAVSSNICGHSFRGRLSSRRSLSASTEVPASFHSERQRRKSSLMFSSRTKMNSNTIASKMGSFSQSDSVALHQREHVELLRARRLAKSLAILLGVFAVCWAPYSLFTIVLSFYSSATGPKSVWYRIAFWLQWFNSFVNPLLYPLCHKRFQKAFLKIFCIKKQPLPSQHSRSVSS
Sequence of α1A (P43140 whole entry): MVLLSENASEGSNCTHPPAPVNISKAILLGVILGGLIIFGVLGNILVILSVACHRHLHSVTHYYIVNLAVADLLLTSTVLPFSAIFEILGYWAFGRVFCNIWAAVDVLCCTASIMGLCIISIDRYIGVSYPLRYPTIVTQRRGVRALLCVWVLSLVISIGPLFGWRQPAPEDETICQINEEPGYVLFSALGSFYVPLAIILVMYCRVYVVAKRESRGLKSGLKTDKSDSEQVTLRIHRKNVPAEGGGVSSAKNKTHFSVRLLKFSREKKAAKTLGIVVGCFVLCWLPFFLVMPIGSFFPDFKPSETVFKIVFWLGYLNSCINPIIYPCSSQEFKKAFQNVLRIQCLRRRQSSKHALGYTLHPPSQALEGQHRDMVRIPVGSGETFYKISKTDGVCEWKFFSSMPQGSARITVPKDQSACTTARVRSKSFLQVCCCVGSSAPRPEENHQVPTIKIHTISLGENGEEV
Sequence of M4 (P08173 whole entry): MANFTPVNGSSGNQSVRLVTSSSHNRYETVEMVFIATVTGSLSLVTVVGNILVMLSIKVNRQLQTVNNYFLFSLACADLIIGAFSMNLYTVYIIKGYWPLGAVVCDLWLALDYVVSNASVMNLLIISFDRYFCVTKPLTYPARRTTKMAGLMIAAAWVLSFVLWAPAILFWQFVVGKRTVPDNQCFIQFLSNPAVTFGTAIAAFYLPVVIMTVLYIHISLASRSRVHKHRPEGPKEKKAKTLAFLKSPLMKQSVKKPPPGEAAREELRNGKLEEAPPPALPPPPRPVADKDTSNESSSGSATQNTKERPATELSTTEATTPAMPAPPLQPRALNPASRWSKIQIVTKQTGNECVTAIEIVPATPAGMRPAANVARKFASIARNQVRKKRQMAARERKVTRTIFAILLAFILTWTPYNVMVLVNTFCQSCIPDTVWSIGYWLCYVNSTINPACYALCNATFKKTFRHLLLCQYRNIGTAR
Sequence of M3 (P20309 whole entry): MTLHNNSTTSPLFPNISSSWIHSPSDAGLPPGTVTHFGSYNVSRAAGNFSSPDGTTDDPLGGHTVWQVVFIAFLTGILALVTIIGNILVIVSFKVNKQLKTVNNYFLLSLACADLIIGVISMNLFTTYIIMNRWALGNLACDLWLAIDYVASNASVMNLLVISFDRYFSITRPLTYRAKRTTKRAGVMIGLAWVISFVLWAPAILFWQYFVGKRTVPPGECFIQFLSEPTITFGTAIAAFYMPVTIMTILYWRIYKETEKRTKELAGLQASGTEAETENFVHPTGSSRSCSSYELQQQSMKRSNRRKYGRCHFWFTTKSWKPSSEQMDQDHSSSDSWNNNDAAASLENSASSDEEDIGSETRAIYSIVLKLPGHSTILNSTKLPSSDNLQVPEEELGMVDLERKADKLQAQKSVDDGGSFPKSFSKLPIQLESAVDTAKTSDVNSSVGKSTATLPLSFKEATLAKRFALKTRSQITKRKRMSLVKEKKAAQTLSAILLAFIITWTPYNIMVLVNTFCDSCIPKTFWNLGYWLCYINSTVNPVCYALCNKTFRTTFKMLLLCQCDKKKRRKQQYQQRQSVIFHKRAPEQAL
T3 sequence (P23975 whole entry): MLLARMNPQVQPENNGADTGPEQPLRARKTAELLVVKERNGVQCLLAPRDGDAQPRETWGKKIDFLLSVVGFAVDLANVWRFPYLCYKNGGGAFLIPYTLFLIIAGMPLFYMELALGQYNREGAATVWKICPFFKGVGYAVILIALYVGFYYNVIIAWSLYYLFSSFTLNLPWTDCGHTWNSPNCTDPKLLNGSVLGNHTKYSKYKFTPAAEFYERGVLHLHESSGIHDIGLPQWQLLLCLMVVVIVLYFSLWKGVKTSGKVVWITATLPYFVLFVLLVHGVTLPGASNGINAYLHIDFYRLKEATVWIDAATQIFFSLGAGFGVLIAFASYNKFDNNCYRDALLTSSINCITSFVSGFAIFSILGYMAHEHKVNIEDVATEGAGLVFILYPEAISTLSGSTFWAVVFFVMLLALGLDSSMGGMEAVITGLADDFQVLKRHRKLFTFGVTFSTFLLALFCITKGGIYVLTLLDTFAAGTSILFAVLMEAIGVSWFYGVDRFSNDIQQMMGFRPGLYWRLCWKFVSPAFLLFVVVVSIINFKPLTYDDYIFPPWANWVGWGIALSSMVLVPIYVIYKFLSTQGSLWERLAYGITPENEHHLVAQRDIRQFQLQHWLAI
Sequence of 5-HT5A (P47898 whole entry): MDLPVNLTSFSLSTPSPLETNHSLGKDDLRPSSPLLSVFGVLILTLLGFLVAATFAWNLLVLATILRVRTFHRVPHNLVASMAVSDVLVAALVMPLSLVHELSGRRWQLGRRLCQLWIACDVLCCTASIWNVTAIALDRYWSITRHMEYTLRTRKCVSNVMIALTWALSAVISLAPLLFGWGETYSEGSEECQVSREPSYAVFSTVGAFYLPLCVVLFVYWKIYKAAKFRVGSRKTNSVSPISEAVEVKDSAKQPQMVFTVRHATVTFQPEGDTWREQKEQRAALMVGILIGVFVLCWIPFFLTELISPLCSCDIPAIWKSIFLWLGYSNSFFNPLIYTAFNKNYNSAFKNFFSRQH
Sequence of H3 (Q9Y5N1 whole entry): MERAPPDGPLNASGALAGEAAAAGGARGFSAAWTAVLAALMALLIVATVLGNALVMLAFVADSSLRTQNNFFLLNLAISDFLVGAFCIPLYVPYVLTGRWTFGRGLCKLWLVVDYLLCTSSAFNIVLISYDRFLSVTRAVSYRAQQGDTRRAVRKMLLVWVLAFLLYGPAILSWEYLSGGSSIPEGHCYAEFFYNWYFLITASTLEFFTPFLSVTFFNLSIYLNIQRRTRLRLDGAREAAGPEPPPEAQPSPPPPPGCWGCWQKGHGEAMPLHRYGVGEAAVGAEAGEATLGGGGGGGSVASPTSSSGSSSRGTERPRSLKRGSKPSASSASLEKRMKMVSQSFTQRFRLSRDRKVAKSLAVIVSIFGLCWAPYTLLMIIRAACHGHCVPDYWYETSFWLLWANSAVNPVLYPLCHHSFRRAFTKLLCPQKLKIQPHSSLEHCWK
Sequence of A2A (P29274 whole entry): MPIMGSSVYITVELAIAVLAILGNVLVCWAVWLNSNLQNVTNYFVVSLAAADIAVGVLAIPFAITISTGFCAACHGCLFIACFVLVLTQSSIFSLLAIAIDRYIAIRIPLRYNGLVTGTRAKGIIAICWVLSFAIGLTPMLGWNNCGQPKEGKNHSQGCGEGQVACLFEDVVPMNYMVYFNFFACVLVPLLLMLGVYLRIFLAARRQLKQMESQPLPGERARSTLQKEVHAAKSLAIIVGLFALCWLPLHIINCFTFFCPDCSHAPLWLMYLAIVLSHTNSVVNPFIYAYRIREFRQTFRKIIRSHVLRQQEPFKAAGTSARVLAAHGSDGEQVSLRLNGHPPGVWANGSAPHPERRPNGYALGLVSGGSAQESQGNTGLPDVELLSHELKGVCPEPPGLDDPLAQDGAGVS

One may read the IC50 as the point on the concentration scale where inhibition reaches its midpoint. Usually Ki stands for a dissociation constant, usually derived from enzyme kinetics or from competition with a known ligand. As for `C[C@]12C[C@@H](O)[C@@H]3C[C@@]1(O[C@@H]1O[C@H](CO)[C@@H](O)[C@H](O)[C@H]1O)[C@@]3(COC(=O)c1ccccc1)C(=O)O2` [albiflorin, Albiflorin], the IC50 at SERT is 0.00304 ± 0.00084 µM; on H4 (setting [1]) it was over 10 µM; on M2 (setting [1]), over 10 µM; on NET, 0.00098 ± 0.00024 µM; on DAT it was 3.69 ± 0.114 µM; on M3 (setting [1]) it was over 10 µM. The IC50 was over 10 µM at A2A; over 10 µM at M4 (setting [1]); over 10 µM at 5-HT5A (setting [1]); 4.71 ± 0.113 µM at α1A (setting [1]); over 10 µM at H3 (setting [1]). The “% Inhibition of binding at 10 μM albiflorin” value on H4 is reported as 6.33%; at M2 it was 13.33%; on M3 it was 25.66%; at M4 it was 15.33%; at 5-HT5A, 20.11%; at α1A, 56.33%. Also, the “% Inhibition of binding at 10 μM albiflorin” value at H3 worked out at 12.33%. Further, the Ki on hNET (Human, [3H]-nisoxetine, HEK293 cell line) was 0.00123 ± 7e-05 µM; on hDAT, 1.48 ± 0.0333 µM. For the same molecule, the “affinity relative to desipramine in hNET binding assay” value at hNET (albiflorin vs desipramine) was determined as 4 fold.
